# Tests used:
# B. subtilis 011085 = assay: B. subtilis capillary accumulation assay; type: cell-based, Bacillus subtilis
# From the text: FIG. 4: Results of B. subtilis capillary accumulation assays using ROMP-derived glucose ligands (compound 5-7, Scheme 1). Buffer alone, glucose, or glucose-bearing compounds 5-7 were used as attractants in the capillary accumulation assay. Results are shown for glucose, compound 5, compound 6, and compound 7. Results are the average of at least four trials performed in duplicate and error bars represent single standard deviations.
# To test the generality of the observed valency-dependent differences in chemotactic activities and to investigate the role of membrane permeability in responses to our ligands, chemotactic experiments in B. subtilis were conducted. B. subtilis is a gram-positive bacterium that, like gram-negative E. coli, is able to respond to saccharide chemoattractants. In the case of B. subtilis, the multivalent ligands can directly interact with saccharide-sensing receptors, without having to first traverse the outer membrane. Glucose is a chemoattractant for B. subtilis, but galactose is not. Glucose-carrying ligands (compounds 5-7, Scheme 1) were effective chemoattractants for B. subtilis as shown in capillary accumulation assays. […] Free chemoattractant signal glucose had maximal activity as a chemoattractant at 0.5 mM. In analogy to observations with E. coli, as the valency of the ligand increases, the saccharide residue concentration of maximum chemotaxis decreases. […] The results observed indicate that in evolutionarily divergent bacteria E. coli and B. subtilis, the valency of the attractant influences chemotactic response.
# E. coli from an overnight culture were grown in LB to OD550 0.4-0.6, washed twice with E. coli chemotaxis buffer, and then partially permeabilized. Bacteria were resuspended in chemotaxis buffer to an OD550 0.1 and utilized in the capillary accumulation assay at 30° C. for 60 min, as previously described. […] Data was analyzed using the Q and Students tests.
# E. coli = E. coli capillary accumulation assay; type: cell-based, Escherichia coli
# Protocol: FIGS. 3A and 3B: Results of E. coli capillary accumulation assays. The number of bacteria accumulated is plotted versus the concentration of the attractant (galactose or compounds 1-4, Scheme 1) calculated on a saccharide residue basis. (A): Results are shown for capillaries filled with buffer alone, compound 1, and compound 2 or (B): buffer alone, compound 3 and compound 4 at the indicated concentrations. The vertical line at 1 mM indicates the concentration of maximum chemotaxis for the monomeric compound 1. […] Results are the average of 3 to 6 experiments performed in duplicate and error bars represent a single standard deviation. Partial permeabilization was required to obtain chemotaxis towards 4, and was utilized for all experiments.
# E. coli were subjected to concentration gradients of compounds 1-4 in capillary accumulation assays to determine the concentration at which the maximum chemotactic response is achieved and the number of bacteria that accumulate at this maximum.
# Concentrations of maximum chemotaxis of 3 and 4 are 100- and 5000-fold lower, respectively, than free galactose (FIG. 3B). […]
# E. coli from an overnight culture were grown in LB to OD550 0.4-0.6, washed twice with E. coli chemotaxis buffer, and then partially permeabilized. […] Data was analyzed using the Q and Students tests.
smiles,measurement,setting,value
O=C(NCCOC1OC(CO)C(O)C(O)C1O)C1C[C@@H]2C=CC1C2 (stereo partly drawn) [Compound 1],chemoattractant activity for B. subtilis,B. subtilis 011085,not chemoattractants
same,chemoattractant activity in mutants,E. coli; ggbp (AW550 and AW543) or trg (AW701) E. coli mutants,not a chemoattractant
same,concentration of maximum chemotaxis,"E. coli; saccharide (galactose) residue basis, partially permeabilized E. coli, 30° C., 60 min",1 mM

# From US20040248801A1, “Methods and reagents for regulation of cellular responses in biological systems” (priority 2000, published 2004)
